Measurements as given in USRE48461E1, “Modulation of androgen receptor expression” (Ionis Pharmaceuticals, Inc., priority 2012, dated 2021).
Where two headings read alike, the source gives them in different places. Oligonucleotides are written 5' to 3', each unit as a sugar letter and its base; * is a phosphorothioate linkage, no mark a phosphodiester; rarer units and linkages stand in square brackets, end groups in braces. Plain capitals give the bases only. k = constrained ethyl (cEt); [5mC] = 5-methylcytosine; d = 2'-deoxy (DNA)

How the values were obtained:
AR mRNA [1] = assay: AR mRNA in LnCaP cells by free uptake (hAR_LTS00943); assay type: cell-based, human; details: 24 hrs
Experimental: Cells were plated at a concentration of 4,000 cells/well in 96-well plates. ISIS oligonucleotides, specified in Table 68, were added individually at 0.02 μM, 0.10 μM, 0.50 μM, 2.50 μM, or 10.00 μM. After an incubation period of 24 hrs, mRNA levels were measured using primer probe set hAR_LTS00943.

LMR20 cells = assay: MDV3100 IC50 in LMR20 clone compared to parental LnCaP cells; assay type: cell-based, human
C4-2B cells [2] = assay: C4-2B cell proliferation, ASO in combination with MDV3100 (Example 19); assay type: cell-based, human; details: for inhibition at 1 µM: Homo sapiens, PBS (no ASO) + MDV3100 1 μM, read-out: Percent inhibition of C4-2B cell proliferation
Experimental: C4-2B cells were plated at 1,500 cells per well. […] ISIS 347526 was included as a negative control. […] After a treatment period of 6 days, the proliferative capacity of the cancer cells was measured with CellTiter 96® AQueous One Solution Cell Proliferation kit (Promega), following the manufacturer's instructions. Results are presented in Table 46 as percent inhibition of proliferation, relative to non-treated cells. Treatment of the cells with ISIS 549372 or ISIS 549458 reduced proliferation of the cells more extensively than treatment with ISIS 554221.

full-length AR = assay: Western blot of full-length AR in MDV3100-resistant C4-2B cells; assay type: cell-based, human; details: C4-2B MR cells (Example 16)
AR full-length mRNA = AR full-length mRNA in CWR22-RV1 cells (RNAiMax, RTS3559); assay type: cell-based, human; details: 6 days
AR mRNA [3] = assay: AR mRNA in C4-2B cells by free uptake (hAR_LTS00943); assay type: cell-based, human; details: 24 hrs; for Percent inhibition of AR full-length mRNA: free uptake
Experimental: Cells were plated at a concentration of 1,000 cells/well in 96-well plates to measure cell proliferation, and at 4,000 cells/well to measure target reduction. ISIS 549458, ISIS 549372, ISIS 549434, and ISIS 554221 were added individually at 0.04 μM, 0.20 μM, 1.00 μM, or 5.00 μM. After an incubation period of 24 hrs, mRNA levels were measured using hAR_LTS00943.

[4] = system: V7 splice variant of the AR mRNA; assay: AR V7 splice variant mRNA in CWR22-RV1 cells (RT-PCR SYBR Green); assay type: cell-based, human; details: RNAiMax, 6 days
CWR22-RV1 cells = assay: CWR22-RV1 cell proliferation (CellTiter 96); assay type: cell-based, human; details: RNAiMax, 6 days
C4-2B cells [5] = assay: C4-2B cell proliferation by free uptake (MTT); assay type: cell-based, human; details: day 6
[6] = cynomolgus monkey, in vivo, sc, 40 mg/kg
Experimental: (§1) Prior to the study, the monkeys were kept in quarantine for a 30-day period, during which the animals were observed daily for general health. The monkeys were 2-4 years old and weighed between 2 and 4 kg. Thirteen groups of four randomly assigned male cynomolgus monkeys each were injected subcutaneously with ISIS oligonucleotide or PBS. PBS solution or ISIS oligonucleotides, at a dose of 40 mg/kg, were administered with a loading regimen consisting of four doses on the first week of the study (days 1, 3, 5, and 7), followed by a maintenance regimen consisting of once weekly administration starting on Day 14 (weeks 2 to 6). Subcutaneous injections were performed in clock-wise rotations at 4 sites on the back; one site per dose. The injection sites were delineated by tattoo, while sedated using ketamine, and were separated by a minimum of 3 cm.
To evaluate the effect of ISIS oligonucleotides on the overall health of the animals, body and organ weights were measured.

testosterone = assay: Serum testosterone levels in cynomolgus monkeys (ELISA); assay type: in vivo; details: cynomolgus monkey, 40 mg/kg subcutaneously, 40 mg/kg
Experimental: Serum testosterone protein levels were measured in the plasma with an ELISA kit (Enzo Life Sciences), following the manufacturer's instructions.

[7] = cynomolgus monkey, in vivo, sc, 40 mg/kg; remark: listed apart in the source
AR mRNA [8] = assay: AR mRNA expression in MDA-MB-453 breast cancer orthotopic model; assay type: in vivo, human; details: Study 2; tumor tissue, normalized to human actin; 50 mg/kg s.c. 5 days per week for 2 weeks
[9] = cynomolgus monkey, in vivo, sc, 40 mg/kg; remark: listed apart in the source
[10] = Hematological parameters in cynomolgus monkeys; details: cynomolgus monkey, 40 mg/kg s.c., day 44
[11] = Plasma BUN and creatinine in cynomolgus monkeys; details: cynomolgus monkey, 40 mg/kg s.c., day 44
[12] = Liver function markers in cynomolgus monkey plasma; details: 40 mg/kg s.c., day 44
Experimental: as §1
To evaluate the effect of ISIS oligonucleotides on hepatic function, the monkeys were fasted overnight. Approximately, 1.5 mL of blood samples were collected on day 44 from all the study groups. Blood was collected in tubes without anticoagulant for serum separation. The tubes were kept at room temperature for a minimum of 90 min and then centrifuged at 3,000 rpm for 10 min. Levels of various liver function markers were measured using a Toshiba 120FR NEO chemistry analyzer (Toshiba Co., Japan).

[13] = cynomolgus monkey, in vivo, sc, 40 mg/kg; remark: listed apart in the source
Experimental: as §1
Kidney function was also assessed by urinalysis. Fresh urine from all animals was collected on day 44 using a clean cage pan on wet ice. Food was removed overnight the day before fresh urine collection was done but water was supplied. The total protein and creatinine levels were measured using a Toshiba 120FR NEO automated chemistry analyzer (Toshiba Co., Japan) and the protein to creatinine ratio was calculated.

549372 (kA*kA*kG*dT*dT*dG*dT*dA*dG*dT*dA*dG*dT*k[5mC]*kG*k[5mC]) [compound 549372]
Percent inhibition of AR mRNA (AR mRNA [1]; 0.02 μM): 0% | Percent inhibition of AR mRNA (AR mRNA [1]; 0.1 μM): 0% | Percent inhibition of AR mRNA (AR mRNA [1]; 0.5 μM): 21% | Percent inhibition of AR mRNA (AR mRNA [1]; 10 μM): 78%

549458 (kG*kT*kT*dG*dA*dT*dT*dT*dA*dA*dT*dG*dG*kT*kT*kG) [compound 549458]
Percent inhibition of AR mRNA (AR mRNA [1]; 0.02 μM): 4% | Percent inhibition of AR mRNA (AR mRNA [1]; 0.1 μM): 14% | Percent inhibition of AR mRNA (AR mRNA [1]; 0.5 μM): 67% | Percent inhibition of AR mRNA (AR mRNA [1]; 10 μM): 89%

CNC(=O)c1ccc(N2C(=S)N(c3ccc(C#N)c(C(F)(F)F)c3)C(=O)C2(C)C)cc1F [MDV3100, 4-(3-(4-cyano-3-(trifluoromethyl)phenyl)-5,5-dimethyl-4-oxo-2-thioxoimidazolidin-1-yl)-2-fluoro-N-methylbenzamide, reference compound]
increase in IC50 of MDV3100 in LMR20 compared to parental LnCaP cells (LMR20 cells): approximately ten-fold increase in IC50 | inhibition at 1 µM (C4-2B cells [2]; Table 46): 38% | inhibition at 1 µM (C4-2B cells [2]; Table 47): 46%

GTTGATTTAATGGTTG (all phosphorothioate, sugars by position not given here; further chemistry not fully specified) [ISIS 549458]
levels of full-length AR (Western analysis) (full-length AR): reduced levels of full-length AR and AR-V7 | Percent inhibition of AR full-length mRNA (AR full-length mRNA; dose 5.0 nM): 41% | Percent inhibition of AR full-length mRNA (AR full-length mRNA; dose 16.7 nM): 61% | Percent inhibition of AR full-length mRNA (AR full-length mRNA; dose 50.0 nM): 78% | AR mRNA expression (AR mRNA [3]; free uptake 0.04-5.00 μM): inhibited AR mRNA expression more potently than ISIS 554221 | Percent inhibition of AR full-length mRNA (AR mRNA [3]; dose 0.04 μM): 16% | Percent inhibition of AR full-length mRNA (AR mRNA [3]; dose 0.20 μM): 48% | Percent inhibition of AR full-length mRNA (AR mRNA [3]; dose 1.00 μM): 80% | Percent inhibition of AR full-length mRNA (AR mRNA [3]; dose 5.00 μM): 86% | Percent inhibition of C4-2B cell proliferation with 0.1 μM ASO (C4-2B cells [2]; 0.1 μM ASO + MDV3100 1 μM, 6 days): 75% | Percent inhibition of C4-2B cell proliferation with 0.1 μM ASO (C4-2B cells [2]; 0.1 μM ASO + MDV3100 […], 6 days): 59% | Percent inhibition of C4-2B cell proliferation with 0.1 μM ASO (C4-2B cells [2]; 0.1 μM ASO, MDV3100 0 μM, 6 days): 39% | Percent inhibition of C4-2B cell proliferation with 0.2 μM ASO (C4-2B cells [2]; 0.2 μM ASO + MDV3100 1 μM, 6 days): 79% | Percent inhibition of C4-2B cell proliferation with 0.2 μM ASO (C4-2B cells [2]; 0.2 μM ASO + MDV3100 […], 6 days): 75% | Percent inhibition of C4-2B cell proliferation with 0.2 μM ASO (C4-2B cells [2]; 0.2 μM ASO, MDV3100 0 μM, 6 days): 74% | synergy with MDV3100 (C4-2B cells [2]; C4-2B cells): synergistic with MDV3100 | cell proliferation inhibited, combination (C4-2B cells [2]; C4-2B cells, 0.1 μM ASO in combination with […] MDV3100): 75% | inhibited cell proliferation, ASO alone (C4-2B cells [2]; C4-2B cells, ASO alone at 0.1 μM): 39% | reduced cell proliferation, ASO alone (C4-2B cells [2]; C4-2B cells, ASO alone, 6 days, Table 46 (0.1 μM ASO)): 74% | prostate cancer cell proliferation, ASO in combination with MDV3100 (C4-2B cells [2]; C4-2B cells, versus equal molar ISIS 554221 + MDV3100): inhibited prostate cancer cell proliferation to a greater extent than an equal molar concentration of ISIS 554221 in combination of MDV3100 | Percent inhibition of AR splice variant, V7 ([4]; dose 5.0 nM): 34% | Percent inhibition of AR splice variant, V7 ([4]; dose 16.7 nM): 58% | Percent inhibition of AR splice variant, V7 ([4]; dose 50.0 nM): 82% | Percent inhibition of cell proliferation (CWR22-RV1 cells; dose 5.0 nM): 0% | Percent inhibition of cell proliferation (CWR22-RV1 cells; dose 16.7 nM): 17% | Percent inhibition of cell proliferation (CWR22-RV1 cells; dose 50.0 nM): 40% | Percent inhibition of cell proliferation (C4-2B cells [5]; dose 0.04 μM): 7% | Percent inhibition of cell proliferation (C4-2B cells [5]; dose 0.20 μM): 31% | Percent inhibition of cell proliferation (C4-2B cells [5]; dose 1.00 μM): 45% | Percent inhibition of cell proliferation (C4-2B cells [5]; dose 5.00 μM): 41%

TGATTTAATGGTTGCA [ISIS 569236] (cEt/MOE gapmer chemistry, further chemistry not given here)
Body Wt [6]: 2.4 kg | Heart weight [6]: 8.4 g | Kidney weight [6]: 12 g | Liver weight [6]: 56 g | Mesenteric lymph nodes weight [6]: 2.4 g | Spleen weight [6]: 3.2 g | Serum testosterone level (testosterone): 12.7 ng/mL | C3 (% of baseline) [7]: 103 % of baseline | CRP [7]: 2.6 mg/dL | AR RNA expression inhibited compared to the control group (AR mRNA [8]): 19% | Plasma BUN [9]: 24.9 mg/dL | Plasma Creatinine [9]: 0.87 mg/dL

TTGATTTAATGGTTGC [ISIS 560131] (MOE and (S)-cEt gapmer chemistry, further chemistry not given here)
Body Wt [6]: 2.4 kg | Heart weight [6]: 9.8 g | Kidney weight [6]: 12 g | Liver weight [6]: 58 g | Mesenteric lymph nodes weight [6]: 2.0 g | Spleen weight [6]: 2.5 g | tolerability: hematology [10]: well tolerated in terms of the hematology of the monkeys | tolerability: kidney function [11]: well tolerated in terms of the kidney function of the monkeys | Serum testosterone level (testosterone): 14.7 ng/mL | C3 (% of baseline) [7]: 100 % of baseline | CRP [7]: 1.7 mg/dL | tolerability: liver function markers [12]: well tolerated in terms of the liver function markers | AR RNA expression inhibited compared to the control group (AR mRNA [8]): 35% | Urine protein/creatinine ratio [13]: 0.02 | Plasma BUN [9]: 23.7 mg/dL | Plasma Creatinine [9]: 0.84 mg/dL
